Tests used:
C. albicans ATCC 10231 = assay: Antifungal broth microdilution (CLSI M27-A3), growth inhibition; type: cell-based, Candida albicans; settings: for MIC50 (minimum concentration to inhibit 50% of fungal growth), C. albicans: C. albicans ATCC 10231
Experimental: (§1) The antifungal properties of compounds 1–24 against two clinical important fungal species, C. albicans ATCC 10231 and C. neoformans ATCC 32264 were investigated. Results were expressed as the percentages of inhibition of each fungus in the range 250–3.9 μg∙mL^−1 by using the standardized microbroth dilution method M-27A3 of Clinical and Laboratory Standards Institute which assures reliable and reproducible results.
(§2) For the antifungal evaluation, standardized strains from the American Type Culture Collection (ATCC), Rockville, MD, USA, were used. The microorganisms included yeasts (Candida albicans ATCC 10231 and Cryptococcus neoformans ATCC 32264). Strains were grown on Sabouraud-chloramphenicol agar slants for 48 h at 30 °C, maintained on slopes of Sabouraud-dextrose agar (SDA, Oxoid), and subcultured every 15 days to prevent pleomorphic transformations. Inocula of cell or spore suspensions were obtained according to reported procedures and adjusted to 1–5 × 10^3 cells/spores with colony forming units (CFU)/mL [29].
(§3) Broth microdilution techniques were performed in 96-well microplates according to the Clinical and Laboratory Standards Institute Reference Method for Broth Dilution Antifungal Susceptibility Testing of Yeasts, Approved Standard M27-A3 [29]. For the assay, compound test wells (CTWs) were prepared with stock solutions of each compound in DMSO (maximum concentration ≤1%), diluted with RPMI-1640, to final concentrations of 250–3.9 μg∙mL^−1. An inoculum suspension (100 μL) was added to each well (final volume in the well = 200 μL). A growth control well (GCW) (containing medium, inoculum, and the same amount of DMSO used in a CTW, but compound-free) and a sterility control well (SCW) (sample, medium, and sterile water instead of inoculum) were included for each fungus tested. Microtiter trays were incubated in a moist, dark chamber at 30 °C for 48 h for both yeasts. Microplates were read in a VERSA Max microplate reader (Molecular Devices, Sunnyvale, CA, USA). Amphotericin B (Sigma-Aldrich) was used as positive control. Tests were performed in triplicate. Reduction of growth for each compound concentration was calculated as follows: % of inhibition = 100 − (OD 405 CTW − OD 405 SCW)/(OD 405 GCW − OD 405 SCW). The means ± SEM were the results of triplicate tests. Three endpoints were defined from the assay explained above and the dose-response curves. Minimum Inhibitory concentration (MIC) resulting in total fungal growth inhibition was named MIC100 while MIC50 was defined as the minimum concentration that inhibits 50% of the fungal growth.

C. neoformans ATCC 32264 = assay: as above; type: cell-based, Cryptococcus neoformans; settings: for MIC50 (minimum concentration to inhibit 50% of fungal growth), C. neoformans: C. neoformans ATCC 32264
Experimental: as §1, §2, §3

Row | SMILES | Inhibition percentage against C. albicans ATCC 10231 (C. albicans ATCC 10231; 3.9 μg∙mL^−1, 48 h) | Inhibition percentage against C. albicans ATCC 10231 (C. albicans ATCC 10231; 7.8 μg∙mL^−1, 48 h) | Inhibition percentage against C. albicans ATCC 10231 (C. albicans ATCC 10231; 15.6 μg∙mL^−1, 48 h) | Inhibition percentage against C. albicans ATCC 10231 (C. albicans ATCC 10231; 62.5 μg∙mL^−1, 48 h) | Inhibition percentage against C. albicans ATCC 10231 (C. albicans ATCC 10231; 125 μg∙mL^−1, 48 h) | Inhibition percentage against C. albicans ATCC 10231 (C. albicans ATCC 10231; 250 μg∙mL^−1, 48 h) | Inhibition percentage against C. albicans ATCC 10231 (C. albicans ATCC 10231; 31. μg∙mL^−1, 48 h) | MIC50 (minimum concentration to inhibit 50% of fungal growth), C. albicans (C. albicans ATCC 10231) | Inhibition percentage against C. neoformans ATCC 32264 (C. neoformans ATCC 32264; 3.9 μg∙mL^−1, 48 h) | Inhibition percentage against C. neoformans ATCC 32264 (C. neoformans ATCC 32264; 7.8 μg∙mL^−1, 48 h) | Inhibition percentage against C. neoformans ATCC 32264 (C. neoformans ATCC 32264; 15.6 μg∙mL^−1, 48 h) | Inhibition percentage against C. neoformans ATCC 32264 (C. neoformans ATCC 32264; 31.2 μg∙mL^−1, 48 h) | Inhibition percentage against C. neoformans ATCC 32264 (C. neoformans ATCC 32264; 62.5 μg∙mL^−1, 48 h) | Inhibition percentage against C. neoformans ATCC 32264 (C. neoformans ATCC 32264; 125 μg∙mL^−1, 48 h) | Inhibition percentage against C. neoformans ATCC 32264 (C. neoformans ATCC 32264; 250 μg∙mL^−1, 48 h) | MIC50 (minimum concentration to inhibit 50% of fungal growth), C. neoformans (C. neoformans ATCC 32264)
1 | CC(C)c1cc2c(c(OC(=O)CCc3cn(Cc4ccc(Br)cc4)nn3)c1OC(=O)CCc1cn(Cc3ccc(Br)cc3)nn1)C13CCCC(C)(C)C1CC2OC3=O (stereo not drawn) [Compound 21, (7β)-11,12-O-(3-(1-(4-bromobenzyl)-1H-1,2,3-triazol-4-yl)-propanoyloxy)-7,20-epoxyabieta-8,11,13-trien-20-one] | 0.0% | 0.0% | 2.6 ± 0.6% | 4.4 ± 1.3% | 6.6 ± 1.1% | 8.6 ± 2.0% | 3.5 ± 0.6% | >250 µg/mL | 1.2 ± 0.6% | 6.7 ± 0.3% | 17.9 ± 0.2% | 18.9 ± 0.7% | 19.2 ± 0.2% | 28.8 ± 0.4% | 40.0 ± 0.3% | >250 µg/mL
2 | CC(C)c1cc2c(c(OC(=O)CCc3cn(Cc4ccccc4)nn3)c1OC(=O)CCc1cn(Cc3ccccc3)nn1)C13CCCC(C)(C)C1CC2OC3=O (stereo not drawn) [Compound 19, (7β)-11,12-O-(3-(1-benzyl-1H-1,2,3-triazol-4-yl)-propanoyloxy)-7,20-epoxyabieta-8,11,13-trien-20-one] | 0.7 ± 0.3% | 3.2 ± 0.1% | 3.2 ± 0.1% | 11.9 ± 1.0% | 21.1 ± 1.0% | 37.8 ± 0.5% | 4.6 ± 1.8% | >250 µg/mL | 0.0% | 0.0% | 0.0% | 0.0% | 3.3 ± 1.1% | 7.1 ± 2.0% | 31.3 ± 1.6% | >250 µg/mL
3 | CC(C)c1cc2c(c(OC(=O)CCCc3cn(Cc4ccc(Br)cc4)nn3)c1OC(=O)CCCc1cn(Cc3ccc(Br)cc3)nn1)C13CCCC(C)(C)C1CC2OC3=O (stereo not drawn) [Compound 22, (7β)-11,12-O-(4-(1-(4-bromobenzyl)-1H-1,2,3-triazol-4-yl)-butanoyloxy)-7,20-epoxyabieta-8,11,13-trien-20-one] | 0.0% | 2.9 ± 0.7% | 5.1 ± 0.4% | 7.0 ± 1.0% | 10.1 ± 0.8% | 12.5 ± 2.2% | 5.9 ± 0.2% | >250 µg/mL | 0.0% | 4.7 ± 0.8% | 4.8 ± 0.2% | 7.6 ± 0.9% | 28.5 ± 1.3% | 52.3 ± 2.3% |  | 125 µg/mL

From PMC6272684, “Synthesis, Antiproliferative and Antifungal Activities of 1,2,3-Triazole-Substituted Carnosic Acid and Carnosol Derivatives” (Molecules, 2015)
